In the supplement of paper PMC4862054:
Values joined by “and” are separate entries in the source; they are usually repeats but may differ in a detail not shown here. Identical values can stand only once.

Assays:
Test in all cases: normalised viability (% of control), CellTiter-Blue; higher = more viable cells (about 100 = DMSO control)
CAL-148 [1] = conditions: 10 nM; incubation time: 72 h
Procedure, shortened: (§1)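 384-well plates were pre-loaded with compound in 5 µl medium before 20 µl of breast cancer cell suspension was seeded. Following 72 h incubation, 2.5 µl CellTiter-Blue reagent was added for 2 h at 37 °C. Fluorescence was read at 560/590 nm and plates were normalised to vehicle (100) and a positive kill control (0), checked by Z'-factor. Normalised viability is reported at a single listed concentration of the series.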

HCC1143 [2] = conditions: 100 nM; incubation time: 72 h
Procedure, shortened: as §1

HCC1937 [3] = conditions: 100 nM; incubation time: 72 h
Procedure, shortened: as §1

CAL-51 [4] = conditions: 10 nM; incubation time: 72 h
Procedure, shortened: as §1

HCC1599 [5] = conditions: 100 nM; incubation time: 72 h
Procedure, shortened: as §1

DU-4475 [6] = conditions: 10 nM; incubation time: 72 h
Procedure, shortened: as §1

MFM-223 [7] = conditions: 100 nM; incubation time: 72 h
Procedure, shortened: as §1

MDA-MB-436 [8] = conditions: 100 nM; incubation time: 72 h
Procedure, shortened: as §1

BT-549 [9] = conditions: 100 nM; incubation time: 72 h
Procedure, shortened: as §1

MDA-MB-231 = conditions: 100 nM; incubation time: 72 h
Procedure, shortened: as §1

CAL-148 [10] = conditions: incubation time: 72 h
Procedure, shortened: as §1

HCC1143 [11] = conditions: incubation time: 72 h
Procedure, shortened: as §1

HCC1937 [12] = conditions: incubation time: 72 h
Procedure, shortened: as §1

CAL-120 = conditions: incubation time: 72 h
Procedure, shortened: as §1

CAL-51 [13] = conditions: incubation time: 72 h
Procedure, shortened: as §1

SK-BR-3 = conditions: incubation time: 72 h
Procedure, shortened: as §1

HCC1599 [14] = conditions: incubation time: 72 h
Procedure, shortened: as §1

DU-4475 [15] = conditions: incubation time: 72 h
Procedure, shortened: as §1

HDQ-P1 = conditions: incubation time: 72 h
Procedure, shortened: as §1

MFM-223 [16] = conditions: incubation time: 72 h
Procedure, shortened: as §1

BT-474 = conditions: incubation time: 72 h
Procedure, shortened: as §1

MDA-MB-453 = conditions: incubation time: 72 h
Procedure, shortened: as §1

MDA-MB-436 [17] = conditions: incubation time: 72 h
Procedure, shortened: as §1

MDA-MB-468 = conditions: incubation time: 72 h
Procedure, shortened: as §1

BT-549 [18] = conditions: incubation time: 72 h
Procedure, shortened: as §1

Hs578T = conditions: incubation time: 72 h
Procedure, shortened: as §1

CAL-85-1 = conditions: incubation time: 72 h
Procedure, shortened: as §1

O=P(O)(NCCCl)NCCCl [Ifosfamide mustard]
Conditions	normalised viability [%]
BT-549 [9]	106
CAL-51 [4]	107
CAL-148 [1]	104
DU-4475 [6]	99.5
HCC1143 [2]	116
HCC1599 [5]	117
HCC1937 [3]	100
MDA-MB-231	95.6
MDA-MB-436 [8]	98.3
MFM-223 [7]	95.2

normalised viability [%]
Conditions	3 nM	10 nM	30 nM	100 nM	1000 nM	10000 nM
BT-474	–	128	–	–	117	119
BT-549 [18]	–	87.2	–	–	91	107
CAL-51 [13]	106	–	98.3	105	–	–
CAL-85-1	96	–	90.9	99.1	–	–
CAL-120	–	80.5	–	–	85.6	89.5
CAL-148 [10]	96.8	–	103	102	–	–
DU-4475 [15]	92.4	–	99.6	95.7	–	–
HCC1143 [11]	–	99.6	–	–	99.8	97.5
HCC1599 [14]	–	96.2	–	–	106	95.6
HCC1937 [12]	–	72.7	–	–	80.2	91.5
HDQ-P1	107	–	117	107	–	–
Hs578T	–	106	–	–	102	112
MDA-MB-436 [17]	–	110	–	–	73.3	104
MDA-MB-453	115	–	95.5	107	–	–
MDA-MB-468	–	98.5	–	–	93.9	86.9
MFM-223 [16]	–	92.4	–	–	83.3	97
SK-BR-3	–	101	–	–	107	111

CS(=O)(=O)CCNCc1ccc(-c2ccc3ncnc(Nc4ccc(OCc5cccc(F)c5)c(Cl)c4)c3c2)o1 [Lapatinib]
Conditions	normalised viability
BT-549 [9]	85.1% and 107%
CAL-51 [4]	116% and 104%
CAL-148 [1]	86% and 86.5%
DU-4475 [6]	111% and 109%
HCC1143 [2]	82.1% and 95.4%
HCC1599 [5]	93.9% and 94.5%
HCC1937 [3]	97.1% and 106%
MDA-MB-436 [8]	95.6% and 116%
MFM-223 [7]	94% and 92.9%

Conditions	normalised viability
BT-474, 10 nM	97.6% and 106%
BT-474, 1000 nM	37.3% and 43.9%
BT-474, 10000 nM	8.89% and 18.7%
BT-549 [18], 10 nM	74.6% and 99.6%
BT-549 [18], 1000 nM	86.5% and 103%
BT-549 [18], 10000 nM	14.1% and 20.7%
CAL-51 [13], 3 nM	122% and 101%
CAL-51 [13], 30 nM	117% and 97.8%
CAL-51 [13], 100 nM	112% and 102%
CAL-85-1, 3 nM	97.7% and 91.7%
CAL-85-1, 30 nM	90.3% and 92.4%
CAL-85-1, 100 nM	94.6% and 91.4%
CAL-120, 10 nM	92.4% and 99.8%
CAL-120, 1000 nM	92% and 102%
CAL-148 [10], 3 nM	92.2% and 89.8%
CAL-148 [10], 30 nM	89.5% and 93.5%
CAL-148 [10], 100 nM	89.3% and 83.7%
DU-4475 [15], 3 nM	104% and 85.5%
DU-4475 [15], 30 nM	97.9% and 96.2%
DU-4475 [15], 100 nM	95.9% and 91.3%
HCC1143 [11], 10 nM	70.7% and 83.8%
HCC1143 [11], 1000 nM	76.2% and 89%
HCC1143 [11], 10000 nM	71% and 82.7%
HCC1599 [14], 10 nM	108% and 96.7%
HCC1599 [14], 10000 nM	63.5% and 83.8%
HCC1937 [12], 1000 nM	91.3% and 113%
HCC1937 [12], 10000 nM	35.8% and 53.3%
HDQ-P1, 100 nM	87.1% and 110%
Hs578T, 1000 nM	93.5% and 95.4%
Hs578T, 10000 nM	24.9% and 33.1%
MDA-MB-436 [17], 10 nM	92.8% and 106%
MDA-MB-436 [17], 1000 nM	91.3% and 112%
MDA-MB-436 [17], 10000 nM	22.6% and 43.3%
MDA-MB-453, 3 nM	100% and 118%
MDA-MB-453, 30 nM	72.4% and 85.8%
MDA-MB-453, 100 nM	59.9% and 59%
MDA-MB-468, 10 nM	100% and 105%
MDA-MB-468, 1000 nM	64.2% and 68.2%
MDA-MB-468, 10000 nM	11.8% and 16.3%
MFM-223 [16], 10 nM	92.8% and 95.8%
MFM-223 [16], 1000 nM	95.8% and 96.9%
MFM-223 [16], 10000 nM	49.5% and 66%
SK-BR-3, 10 nM	78.8% and 92.4%
SK-BR-3, 1000 nM	18.2% and 22.2%
SK-BR-3, 10000 nM	6.7% and 8.97%
